According to BindingDB's records for doi:10.1021/jm960395q (Shionogi, 1996):

How the values were obtained:
[1] = target: T1, Phospholipase A2 (Homo sapiens, UniProt P04054); test: Inhibition of recombinant human secretory Phospholipase A2 (s-PLA2)
[2] = Inhibitory activity against recombinant human secretory Phospholipase A2 (s-PLA2) by phosphatidylcholine/deoxycholate assay(PC/DOC).
[3] = Inhibitory activity against recombinant human secretory phospholipase A2 (s-PLA2) by phosphatidylcholine/deoxycholate assay (PC/DOC).
[4] = target: T1, Phospholipase A2; test: Inhibition of recombinant human secretory phospholipase A2 (sPLA2), chromogenic screening assay.

T1 sequence (P04054 whole entry): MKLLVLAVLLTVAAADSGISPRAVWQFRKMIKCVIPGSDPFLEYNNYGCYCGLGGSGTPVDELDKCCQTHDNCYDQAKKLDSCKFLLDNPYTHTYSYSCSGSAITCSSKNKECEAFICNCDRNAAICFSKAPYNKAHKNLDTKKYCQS

With `CCC1C(C(N)=O)=C2C(OCC(=O)O)=CC=CN2/C1=C\c1ccccc1Cc1ccccc1` (centres undefined) [{3-[1-(2-Benzyl-phenyl)-meth-(Z)-ylidene]-1-carbamoyl-2-ethyl-2,3-dihydro-indolizin-8-yloxy}-acetic acid] the IC50 [1] was 400 nM.

`CCC1C(CC(N)=O)=C2C(OCC(=O)O)=CC=CN2/C1=C\c1cccc(C(F)(F)F)c1` (centres undefined) [{1-Carbamoylmethyl-2-ethyl-3-[1-(3-trifluoromethyl-phenyl)-meth-(Z)-ylidene]-2,3-dihydro-indolizin-8-yloxy}-acetic acid] showed an IC50 [1] of 240 nM.

Work on `CCc1c(C(=O)C(N)=O)c2c(OCn3ncnn3)cccn2c1Cc1cccc(Cl)c1` [2-[3-(3-Chloro-benzyl)-2-ethyl-8-(4H-tetrazol-2-ylmethoxy)-indolizin-1-yl]-2-oxo-acetamide] yielded an IC50 [1] of 30 nM and an IC50 [2] of 45000 nM.

`CCC1C(CC(N)=O)=C2C(OCC(=O)O)=CC=CN2/C1=C\c1ccccc1` (centres undefined) [{1-Carbamoylmethyl-2-ethyl-3-[1-phenyl-meth-(Z)-ylidene]-2,3-dihydro-indolizin-8-yloxy}-acetic acid] showed an IC50 [1] of 160 nM.

`COC(=O)CCCOC1=CC=CN2C1=C(CC(N)=O)C(C)C2Cc1ccccc1` (centres undefined) [4-(3-Benzyl-1-carbamoylmethyl-2-methyl-2,3-dihydro-indolizin-8-yloxy)-butyric acid methyl ester] showed an IC50 [1] of 15000 nM.

Work on `CCC1C(CC(N)=O)=C2C(OCC(=O)O)=CC=CN2/C1=C\c1cccc2ccccc12` (centres undefined) [{1-Carbamoylmethyl-2-ethyl-3-[1-naphthalen-1-yl-meth-(Z)-ylidene]-2,3-dihydro-indolizin-8-yloxy}-acetic acid] yielded an IC50 [1] of 25 nM and an IC50 [2] of 130000 nM.

Compound `CCC1C(CC(N)=O)=C2C(OCC(=O)O)=CC=CN2/C1=C\c1cccc(Cl)c1` (centres undefined) [{1-Carbamoylmethyl-3-[1-(3-chloro-phenyl)-meth-(Z)-ylidene]-2-ethyl-2,3-dihydro-indolizin-8-yloxy}-acetic acid] has an IC50 [1] of 200 nM.

In the case of `CC1C(C(N)=O)=C2C(OCC(=O)O)=CC=CN2/C1=C\c1ccccc1` (centres undefined) [{1-Carbamoyl-2-methyl-3-[1-phenyl-meth-(Z)-ylidene]-2,3-dihydro-indolizin-8-yloxy}-acetic acid], the IC50 [1] is reported as 420 nM.

Work on `CCc1c(C(=O)C(N)=O)c2c(OCC(=O)O)cccn2c1Cc1cccc(Cl)c1` [[1-Aminooxalyl-3-(3-chloro-benzyl)-2-ethyl-indolizin-8-yloxy]-acetic acid] yielded an IC50 [3] of 3 nM and an IC50 [4] of 6 nM.

With `CCc1c(C(=O)C(N)=O)c2c(OCC(=O)O)cccn2c1CC1CCCCCC1` [(1-Aminooxalyl-3-cycloheptylmethyl-2-ethyl-indolizin-8-yloxy)-acetic acid] the IC50 [3] was 100 nM and the IC50 [4] was 23 nM.

Work on `COC(=O)COc1cccn2c(Cc3cccc4ccccc34)c(C3CC3)c(C(=O)C(N)=O)c12` [(1-Aminooxalyl-2-cyclopropyl-3-naphthalen-1-ylmethyl-indolizin-8-yloxy)-acetic acid methyl ester] yielded an IC50 [3] of 200 nM and an IC50 [4] of 23 nM.

For `CC1C(CC(N)=O)=C2C(OCC(=O)O)=CC=CN2C1Cc1ccccc1` (centres undefined) [(3-Benzyl-1-carbamoylmethyl-2-methyl-2,3-dihydro-indolizin-8-yloxy)-acetic acid], the IC50 [1] was 12000 nM.

In the case of `COc1c(C(=O)C(N)=O)c2c(OCC(=O)O)cccn2c1Cc1ccccc1-c1ccccc1` [(1-Aminooxalyl-3-biphenyl-2-ylmethyl-2-methoxy-indolizin-8-yloxy)-acetic acid], the IC50 [3] is reported as 13 nM and the IC50 [4] is reported as 15 nM.

In the case of `CCc1c(C(=O)C(N)=O)c2c(OCC(=O)O)cccn2c1Cc1cccs1` [(1-Aminooxalyl-2-ethyl-3-thiophen-2-ylmethyl-indolizin-8-yloxy)-acetic acid], the IC50 [3] is reported as 13 nM and the IC50 [4] is reported as 11 nM.

`CCc1c(C(=O)C(N)=O)c2c(OCc3ccc4ccccc4n3)cccn2c1Cc1ccccc1-c1ccccc1` [2-[3-Biphenyl-2-ylmethyl-2-ethyl-8-(quinolin-2-ylmethoxy)-indolizin-1-yl]-2-oxo-acetamide] gave an IC50 [1] of 55 nM.

`CC1C(CC(N)=O)=C2C(OCCCC(=O)O)=CC=CN2/C1=C\c1ccccc1` (centres undefined) [4-{1-Carbamoylmethyl-2-methyl-3-[1-phenyl-meth-(Z)-ylidene]-2,3-dihydro-indolizin-8-yloxy}-butyric acid] showed an IC50 [1] of 910 nM.

Work on `CCC1C(CC(N)=O)=C2C(OCC(=O)O)=CC=CN2/C1=C\c1ccccc1-c1ccccc1` (centres undefined) [{3-[1-Biphenyl-2-yl-meth-(Z)-ylidene]-1-carbamoylmethyl-2-ethyl-2,3-dihydro-indolizin-8-yloxy}-acetic acid] yielded an IC50 [1] of 100 nM and an IC50 [2] of 420000 nM.

`CCC1C(CC(N)=O)=C2C(OCC(=O)O)=CC=CN2/C1=C\c1ccc2ccccc2c1` (centres undefined) [{1-Carbamoylmethyl-2-ethyl-3-[1-naphthalen-2-yl-meth-(Z)-ylidene]-2,3-dihydro-indolizin-8-yloxy}-acetic acid] gave an IC50 [1] of 170 nM.

In the case of `CCCCc1ccc(Cc2c(CC)c(C(=O)C(N)=O)c3c(OCC(=O)O)cccn23)cc1` [[1-Aminooxalyl-3-(4-butyl-benzyl)-2-ethyl-indolizin-8-yloxy]-acetic acid], the IC50 [3] is reported as 5 nM and the IC50 [4] is reported as 11 nM.

For `Cc1c(C(=O)C(N)=O)c2c(OCC(=O)O)cccn2c1Cc1ccccc1` [(1-Aminooxalyl-3-benzyl-2-methyl-indolizin-8-yloxy)-acetic acid], the IC50 [3] was 3 nM and the IC50 [4] was 8 nM.

Compound `CCc1c(C(=O)C(N)=O)c2c(OCC(=O)O)cccn2c1Cc1ccccc1` [(1-Aminooxalyl-3-benzyl-2-ethyl-indolizin-8-yloxy)-acetic acid] has an IC50 [3] of 5 nM and an IC50 [4] of 8 nM.

With `Cc1c(C(=O)C(N)=O)c2c(OCC(=O)O)cccn2c1CC1CCCC1` [(1-Aminooxalyl-3-cyclopentylmethyl-2-methyl-indolizin-8-yloxy)-acetic acid] the IC50 [3] was 22 nM and the IC50 [4] was 14 nM.

With `CCC1C(CC(N)=O)=C2C(OCC(=O)O)=CC=CN2/C1=C\c1cccc(Cl)c1Cl` (centres undefined) [{1-Carbamoylmethyl-3-[1-(2,3-dichloro-phenyl)-meth-(Z)-ylidene]-2-ethyl-2,3-dihydro-indolizin-8-yloxy}-acetic acid] the IC50 [1] was 67 nM.

`CCCCC[C@H]1CCCC(Cc2c(CC)c(C(=O)C(N)=O)c3c(OCC(=O)O)cccn23)C1` (stereo partly drawn) [[1-Aminooxalyl-2-ethyl-3-((S)-3-pentyl-cyclohexylmethyl)-indolizin-8-yloxy]-acetic acid] gave an IC50 [3] of 20 nM and an IC50 [4] of 25 nM.

Compound `NC(=O)C(=O)c1c(C2CC2)c(Cc2ccccc2)n2cccc(OCC(=O)O)c12` [(1-Aminooxalyl-3-benzyl-2-cyclopropyl-indolizin-8-yloxy)-acetic acid] has an IC50 [3] of 49 nM and an IC50 [4] of 46 nM.
